For 19 compounds, IC50 results are on record in US12083124B2 (Incyte Corporation, priority 2019, dated 2024).

The target of test [1] is wild-type un-phosphorylated FGFR1 (Homo sapiens, UniProt P11362). The test is described as follows: FGFR Enzymatic Assay (FRET peptide phosphorylation), FGFR1. The following applies: read-out: FGFR1; wild-type un-phosphorylated FGFR1; pre-incubated for 4 hours.
Protocol: The inhibitor potency of the exemplified compounds was determined in an enzyme discontinuous assay that measures peptide phosphorylation using FRET measurements to detect product formation. Inhibitors were serially diluted in DMSO and a volume of 0.2 μL was transferred to the wells of a 384-well plate. […] Appropriate controls (enzyme blank and enzyme with no inhibitor) were included on the plate. […] The 10 μL/well reaction concentration of the peptide substrate was 500 nM whereas the ATP concentration was maintained near or below the ATP Km. The ATP Km values were pre-determined in a separate series of experiments. The reaction plate was incubated at 25° C. for 1 hr and the reactions were ended with the addition of 5 μL/well of quench solution (50 mM Tris, 150 mM NaCl, 0.5 mg/mL BSA, pH 7.8; 45 mM EDTA, 600 nM staurosporin, with Perkin Elmer Lance Reagents at 3.75 nM Eu-antibody PY20 and 180 nM APC-Streptavidin). The plate was allowed to equilibrate for ˜10 minutes at ambient temperature before scanning on a PheraStar plate reader (BMG Labtech) instrument.
Either GraphPad prism or XLfit was used to analyze the data. The IC50 values were derived by fitting the data to a four parameter logistic equation producing a sigmoidal dose-response curve with a variable Hill coefficient. Prism equation: Y=Bottom+(Top-Bottom)/(1+10^((Log IC50-X)*Hill slope)); XLfit equation: Y=(A+((B−A)/(1+((X/C)^D)))) where X is the logarithm of inhibitor concentration and Y is the response.
GraphPad prism3 was used to analyze the data. The IC50 values were derived by fitting the data to the equation for a sigmoidal dose-response with a variable slope. Y=Bottom+(Top-Bottom)/(1+10^((Log IC50-X)*Hill Slope)) where X is the logarithm of concentration and Y is the response.
The data in Table 1 was measured in wild-type un-phosphorylated FGFR1, FGFR2, FGFR3, and FGFR4 proteins.
Test [2] has as its target wild-type un-phosphorylated FGFR2 (Homo sapiens, UniProt P21802). Kind of test: FGFR Enzymatic Assay (FRET peptide phosphorylation), FGFR2.
The target in test [3] is wild-type un-phosphorylated FGFR4 (Homo sapiens, UniProt P22455). The test is described as follows: FGFR Enzymatic Assay (FRET peptide phosphorylation), FGFR4.
Test [4] addresses wild-type un-phosphorylated FGFR3 (Homo sapiens, UniProt P22607). The test is described as follows: FGFR Enzymatic Assay (FRET peptide phosphorylation), FGFR3.
The mark [5] stands for this setting: read-out: FGFR4, wild-type un-phosphorylated FGFR4, pre-incubated for 4 hours.

Read-outs that look alike come from different tables or passages of the source.

Sequence of wild-type un-phosphorylated FGFR4 (P22455 22-802): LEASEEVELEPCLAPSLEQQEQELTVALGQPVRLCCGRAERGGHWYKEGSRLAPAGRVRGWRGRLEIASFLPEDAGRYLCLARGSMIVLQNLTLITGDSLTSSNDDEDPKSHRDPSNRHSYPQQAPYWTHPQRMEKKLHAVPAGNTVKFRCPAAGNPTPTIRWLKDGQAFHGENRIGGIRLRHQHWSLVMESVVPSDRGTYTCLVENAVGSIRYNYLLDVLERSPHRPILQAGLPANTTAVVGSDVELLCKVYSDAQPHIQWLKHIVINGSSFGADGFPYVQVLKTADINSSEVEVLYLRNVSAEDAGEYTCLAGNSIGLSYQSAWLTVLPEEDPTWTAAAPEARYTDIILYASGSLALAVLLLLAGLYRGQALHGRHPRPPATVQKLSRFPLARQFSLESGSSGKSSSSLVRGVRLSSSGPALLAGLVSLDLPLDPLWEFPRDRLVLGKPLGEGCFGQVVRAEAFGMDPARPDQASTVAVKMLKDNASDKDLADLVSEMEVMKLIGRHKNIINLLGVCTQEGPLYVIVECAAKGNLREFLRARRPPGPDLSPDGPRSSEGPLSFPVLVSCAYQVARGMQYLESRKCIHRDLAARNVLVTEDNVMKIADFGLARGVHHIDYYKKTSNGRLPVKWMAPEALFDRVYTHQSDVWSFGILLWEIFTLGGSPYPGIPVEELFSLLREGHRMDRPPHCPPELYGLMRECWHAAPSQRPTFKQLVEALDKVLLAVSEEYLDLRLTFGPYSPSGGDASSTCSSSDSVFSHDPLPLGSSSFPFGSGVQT
Sequence of wild-type un-phosphorylated FGFR2 (P21802 22-821): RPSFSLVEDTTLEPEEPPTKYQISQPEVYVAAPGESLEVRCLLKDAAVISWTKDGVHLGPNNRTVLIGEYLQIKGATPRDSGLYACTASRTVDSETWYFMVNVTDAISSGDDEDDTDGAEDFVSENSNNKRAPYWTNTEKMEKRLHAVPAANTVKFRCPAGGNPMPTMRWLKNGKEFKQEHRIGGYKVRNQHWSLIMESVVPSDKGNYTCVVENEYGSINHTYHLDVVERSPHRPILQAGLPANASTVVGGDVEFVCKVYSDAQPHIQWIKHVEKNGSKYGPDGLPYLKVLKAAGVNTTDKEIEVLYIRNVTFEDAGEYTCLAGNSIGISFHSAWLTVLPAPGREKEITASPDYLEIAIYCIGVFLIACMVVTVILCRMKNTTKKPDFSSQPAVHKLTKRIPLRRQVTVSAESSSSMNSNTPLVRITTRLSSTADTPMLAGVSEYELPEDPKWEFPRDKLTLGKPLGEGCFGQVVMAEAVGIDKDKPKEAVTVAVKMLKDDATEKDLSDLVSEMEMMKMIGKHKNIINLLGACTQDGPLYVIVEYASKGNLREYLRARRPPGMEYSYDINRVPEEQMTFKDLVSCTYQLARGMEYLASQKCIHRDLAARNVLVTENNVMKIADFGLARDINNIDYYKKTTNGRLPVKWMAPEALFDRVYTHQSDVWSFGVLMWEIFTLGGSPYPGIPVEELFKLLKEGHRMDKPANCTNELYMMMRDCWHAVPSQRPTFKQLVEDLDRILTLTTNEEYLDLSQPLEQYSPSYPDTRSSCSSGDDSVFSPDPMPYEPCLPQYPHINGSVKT
Sequence of wild-type un-phosphorylated FGFR1 (P11362 22-822): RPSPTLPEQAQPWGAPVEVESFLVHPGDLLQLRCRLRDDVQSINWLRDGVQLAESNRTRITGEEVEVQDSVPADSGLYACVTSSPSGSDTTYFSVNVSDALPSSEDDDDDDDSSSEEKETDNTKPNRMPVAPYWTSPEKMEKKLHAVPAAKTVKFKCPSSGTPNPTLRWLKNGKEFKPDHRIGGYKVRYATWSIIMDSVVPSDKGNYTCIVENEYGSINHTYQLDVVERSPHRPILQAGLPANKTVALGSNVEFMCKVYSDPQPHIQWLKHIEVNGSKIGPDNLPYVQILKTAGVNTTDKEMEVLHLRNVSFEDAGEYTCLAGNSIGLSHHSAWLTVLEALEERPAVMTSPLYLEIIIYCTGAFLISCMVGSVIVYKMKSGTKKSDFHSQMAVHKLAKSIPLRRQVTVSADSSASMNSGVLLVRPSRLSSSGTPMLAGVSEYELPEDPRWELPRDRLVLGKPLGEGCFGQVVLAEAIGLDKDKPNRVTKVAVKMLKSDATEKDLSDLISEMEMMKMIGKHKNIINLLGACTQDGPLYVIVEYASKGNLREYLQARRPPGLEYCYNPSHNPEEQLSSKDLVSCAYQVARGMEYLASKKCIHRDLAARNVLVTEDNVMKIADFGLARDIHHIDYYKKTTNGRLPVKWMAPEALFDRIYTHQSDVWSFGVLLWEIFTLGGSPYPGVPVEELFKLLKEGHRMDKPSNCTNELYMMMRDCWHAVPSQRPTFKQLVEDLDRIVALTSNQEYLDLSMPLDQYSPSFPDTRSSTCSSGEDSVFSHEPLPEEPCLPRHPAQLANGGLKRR
Sequence of wild-type un-phosphorylated FGFR3 (P22607 23-806): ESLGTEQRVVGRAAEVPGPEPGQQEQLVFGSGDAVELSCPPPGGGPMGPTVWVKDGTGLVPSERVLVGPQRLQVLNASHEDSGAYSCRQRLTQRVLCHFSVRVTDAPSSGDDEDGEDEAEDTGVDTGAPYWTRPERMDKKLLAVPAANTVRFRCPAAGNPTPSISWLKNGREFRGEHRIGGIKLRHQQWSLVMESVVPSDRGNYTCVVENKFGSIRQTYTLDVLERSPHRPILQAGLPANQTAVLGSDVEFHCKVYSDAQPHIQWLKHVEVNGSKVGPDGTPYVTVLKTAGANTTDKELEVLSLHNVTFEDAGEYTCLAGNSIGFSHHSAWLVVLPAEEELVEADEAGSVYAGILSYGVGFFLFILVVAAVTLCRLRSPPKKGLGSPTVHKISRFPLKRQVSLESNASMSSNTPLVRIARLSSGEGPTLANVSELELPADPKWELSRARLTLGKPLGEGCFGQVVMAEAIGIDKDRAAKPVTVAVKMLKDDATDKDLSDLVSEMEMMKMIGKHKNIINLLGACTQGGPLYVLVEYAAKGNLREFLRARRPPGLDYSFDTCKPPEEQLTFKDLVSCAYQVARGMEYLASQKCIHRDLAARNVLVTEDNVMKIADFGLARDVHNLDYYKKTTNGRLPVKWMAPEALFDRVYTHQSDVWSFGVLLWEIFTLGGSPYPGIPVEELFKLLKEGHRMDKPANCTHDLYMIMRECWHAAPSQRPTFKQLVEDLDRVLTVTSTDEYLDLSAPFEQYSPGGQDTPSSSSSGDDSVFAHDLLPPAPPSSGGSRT

Consider `COc1cc2[nH]nc(-c3cnn(C4CN(C(=O)[C@H]5C[C@H](O)C5)C4)c3)c2nc1-c1cccc2c1CCC2` [Example 125, (3-(4-(5-(2,3-Dihydro-1H-inden-4-yl)-6-methoxy-1H-pyrazolo[4,3-b]pyridin-3-yl)-1H-pyrazol-1-yl)azetidin-1-yl)((trans)-3-hydroxycyclobutyl)methanone], for which the IC50 in test [1] was 6 to 40 nM; in test [2], under 6 nM; in test [3] (setting [5]), 6 to 40 nM; in test [4], under 6 nM.

Turning to `COc1cc2[nH]nc(-c3cnn(C4CN(C(=O)[C@H]5C[C@@H](O)C5)C4)c3)c2nc1-c1cccc2c1CCC2` [Example 126, (3-(4-(5-(2,3-Dihydro-1H-inden-4-yl)-6-methoxy-1H-pyrazolo[4,3-b]pyridin-3-yl)-1H-pyrazol-1-yl)azetidin-1-yl)((cis)-3-hydroxycyclobutyl)methanone], the IC50 is 6 to 40 nM in test [1], under 6 nM in test [2], 6 to 40 nM in test [3] (setting [5]) and under 6 nM in test [4].

Turning to `COc1cc2[nH]nc(-c3cnn(C4CN(C(=O)[C@H]5COCCN5C)C4)c3)c2nc1-c1cccc2c1CCC2` [Example 127, (R)-(3-(4-(5-(2,3-Dihydro-1H-inden-4-yl)-6-methoxy-1H-pyrazolo[4,3-b]pyridin-3-yl)-1H-pyrazol-1-yl)azetidin-1-yl)(4-methylmorpholin-3-yl)methanone], the IC50 in test [1] is 6 to 40 nM; in test [2], under 6 nM; in test [3], 40 to 100 nM; in test [4], under 6 nM.

On to `COc1cc2[nH]nc(-c3cnn(C4CN(C(=O)[C@@H]5COCCN5C)C4)c3)c2nc1-c1cccc2c1CCC2` [Example 128, (S)-(3-(4-(5-(2,3-Dihydro-1H-inden-4-yl)-6-methoxy-1H-pyrazolo[4,3-b]pyridin-3-yl)-1H-pyrazol-1-yl)azetidin-1-yl)(4-methylmorpholin-3-yl)methanone], for which the IC50 in test [1] was 6 to 40 nM; in test [2] it was under 6 nM; in test [3], 40 to 100 nM; in test [4] it was under 6 nM.

Consider `COc1cc2[nH]nc(-c3cnn([C@H]4CCN(C(=O)CO)C4)c3)c2nc1-c1cccc2c1CCC2` [Example 129, (S)-1-(3-(4-(5-(2,3-Dihydro-1H-inden-4-yl)-6-methoxy-1H-pyrazolo[4,3-b]pyridin-3-yl)-1H-pyrazol-1-yl)pyrrolidin-1-yl)-2-hydroxyethan-1-one], for which the IC50 in test [1] is 6 to 40 nM; in test [2], under 6 nM; in test [3] (setting [5]), 6 to 40 nM; in test [4], under 6 nM.

In the case of `COc1cc2[nH]nc(-c3cnn(C4CN(C(=O)[C@@H]5CCCO5)C4)c3)c2nc1-c1cccc2c1CCC2` [Example 130, (S)-(3-(4-(5-(2,3-Dihydro-1H-inden-4-yl)-6-methoxy-1H-pyrazolo[4,3-b]pyridin-3-yl)-1H-pyrazol-1-yl)azetidin-1-yl)(tetrahydrofuran-2-yl)methanone], the IC50 in test [1] was 6 to 40 nM; in test [2] it was under 6 nM; in test [3] (setting [5]), 6 to 40 nM; in test [4], under 6 nM.

Take `COc1cc2[nH]nc(-c3cnn(C4CN(C(=O)[C@H]5CCOC5)C4)c3)c2nc1-c1cccc2c1CCC2` [Example 131, (S)-(3-(4-(5-(2,3-Dihydro-1H-inden-4-yl)-6-methoxy-1H-pyrazolo[4,3-b]pyridin-3-yl)-1H-pyrazol-1-yl)azetidin-1-yl)(tetrahydrofuran-3-yl)methanone]: the IC50 in test [1] is 6 to 40 nM; in test [2], under 6 nM; in test [3] (setting [5]), 6 to 40 nM; in test [4], under 6 nM.

Regarding `COc1cc2[nH]nc(-c3cnn([C@H]4CCN(C(=O)[C@@H](C)O)C4)c3)c2nc1-c1cccc2c1CCC2` [Example 132, (R)-1-((S)-3-(4-(5-(2,3-Dihydro-1H-inden-4-yl)-6-methoxy-1H-pyrazolo[4,3-b]pyridin-3-yl)-1H-pyrazol-1-yl)pyrrolidin-1-yl)-2-hydroxypropan-1-one], the IC50 was 6 to 40 nM in test [1], under 6 nM in test [2], 40 to 100 nM in test [3] and under 6 nM in test [4].

In the case of `COc1cc2[nH]nc(-c3cnn([C@H]4CCN(C(=O)[C@H](C)O)C4)c3)c2nc1-c1cccc2c1CCC2` [Example 133, (S)-1-((S)-3-(4-(5-(2,3-Dihydro-1H-inden-4-yl)-6-methoxy-1H-pyrazolo[4,3-b]pyridin-3-yl)-1H-pyrazol-1-yl)pyrrolidin-1-yl)-2-hydroxypropan-1-one], the IC50 in test [1] was 6 to 40 nM; in test [2], under 6 nM; in test [3], 40 to 100 nM; in test [4], under 6 nM.

As for `COc1cc2[nH]nc(-c3cnn(C4CN(C(=O)C[C@@H](C)O)C4)c3)c2nc1-c1cccc2c1CCC2` [Example 134, (R)-1-(3-(4-(5-(2,3-Dihydro-1H-inden-4-yl)-6-methoxy-1H-pyrazolo[4,3-b]pyridin-3-yl)-1H-pyrazol-1-yl)azetidin-1-yl)-3-hydroxybutan-1-one], the IC50 in test [1] was 6 to 40 nM; in test [2], under 6 nM; in test [3], 40 to 100 nM; in test [4], under 6 nM.

`COc1cc2[nH]nc(-c3cnn(C4CN(C(=O)[C@H]5C[C@](C)(O)C5)C4)c3)c2nc1-c1cccc2c1CCC2` [Example 135, (3-(4-(5-(2,3-Dihydro-1H-inden-4-yl)-6-methoxy-1H-pyrazolo[4,3-b]pyridin-3-yl)-1H-pyrazol-1-yl)azetidin-1-yl)((1r,3r)-3-hydroxy-3-methylcyclobutyl)methanone]: the IC50 is 6 to 40 nM in test [1], under 6 nM in test [2], 6 to 40 nM in test [3] (setting [5]) and under 6 nM in test [4].

For `COc1cc2[nH]nc(-c3cnn(C4CN(C(=O)[C@H]5C[C@@](C)(O)C5)C4)c3)c2nc1-c1cccc2c1CCC2` [Example 136, (3-(4-(5-(2,3-Dihydro-1H-inden-4-yl)-6-methoxy-1H-pyrazolo[4,3-b]pyridin-3-yl)-1H-pyrazol-1-yl)azetidin-1-yl)((1s,3s)-3-hydroxy-3-methylcyclobutyl)methanone], the IC50 in test [1] is 6 to 40 nM; in test [2], under 6 nM; in test [3] (setting [5]), 6 to 40 nM; in test [4], under 6 nM.

On to `COc1cc2[nH]nc(-c3cnn([C@@H]4CCN(C(=O)[C@@H]5COCCN5C)C4)c3)c2nc1-c1cccc2c1CCC2` [Example 137, ((R)-3-(4-(5-(2,3-Dihydro-1H-inden-4-yl)-6-methoxy-1H-pyrazolo[4,3-b]pyridin-3-yl)-1H-pyrazol-1-yl)pyrrolidin-1-yl)((S)-4-methylmorpholin-3-yl)methanone], for which the IC50 is 6 to 40 nM in test [1], under 6 nM in test [2], 40 to 100 nM in test [3] and under 6 nM in test [4].

For the compound `COc1cc2[nH]nc(-c3cnn([C@H]4CCN(C(=O)[C@H]5COCCN5C)C4)c3)c2nc1-c1cccc2c1CCC2` [Example 138, ((S)-3-(4-(5-(2,3-Dihydro-1H-inden-4-yl)-6-methoxy-1H-pyrazolo[4,3-b]pyridin-3-yl)-1H-pyrazol-1-yl)pyrrolidin-1-yl)((R)-4-methylmorpholin-3-yl)methanone], the IC50 in test [1] was 6 to 40 nM; in test [2] it was under 6 nM; in test [3] it was 40 to 100 nM; in test [4] it was under 6 nM.

`COc1cc2[nH]nc(-c3cnn(C4CN(C(=O)C5(CO)CCC5)C4)c3)c2nc1-c1cccc2c1CCC2` [Example 139, (3-(4-(5-(2,3-Dihydro-1H-inden-4-yl)-6-methoxy-1H-pyrazolo[4,3-b]pyridin-3-yl)-1H-pyrazol-1-yl)azetidin-1-yl)(1-(hydroxymethyl)cyclobutyl)methanone]: the IC50 in test [1] was 6 to 40 nM; in test [2], under 6 nM; in test [3] (setting [5]), 6 to 40 nM; in test [4] it was under 6 nM.

For the compound `CCN1CC[C@H]1C(=O)N1CC(n2cc(-c3n[nH]c4cc(OC)c(-c5cccc6c5CCC6)nc34)cn2)C1` [Example 140, (S)-(3-(4-(5-(2,3-dihydro-1H-inden-4-yl)-6-methoxy-1H-pyrazolo[4,3-b]pyridin-3-yl)-1H-pyrazol-1-yl)azetidin-1-yl)(1-ethylazetidin-2-yl)methanone], the IC50 in test [1] is 6 to 40 nM; in test [2], under 6 nM; in test [3], 40 to 100 nM; in test [4], under 6 nM.

For `COc1cc2[nH]nc(-c3cnn(C4CN(C(=O)[C@@H]5CCN5CCF)C4)c3)c2nc1-c1cccc2c1CCC2` [Example 141, (S)-(3-(4-(5-(2,3-Dihydro-1H-inden-4-yl)-6-methoxy-1H-pyrazolo[4,3-b]pyridin-3-yl)-1H-pyrazol-1-yl)azetidin-1-yl)(1-(2-fluoroethyl)azetidin-2-yl)methanone], the IC50 was 6 to 40 nM in test [1], under 6 nM in test [2], 6 to 40 nM in test [3] (setting [5]) and under 6 nM in test [4].

With `COc1cc2[nH]nc(-c3cnn(C4CN(C(=O)[C@@H]5CCN5C(C)C)C4)c3)c2nc1-c1cccc2c1CCC2` [Example 142, (S)-(3-(4-(5-(2,3-Dihydro-1H-inden-4-yl)-6-methoxy-1H-pyrazolo[4,3-b]pyridin-3-yl)-1H-pyrazol-1-yl)azetidin-1-yl)(1-isopropylazetidin-2-yl)methanone], the IC50 is 6 to 40 nM in test [1], under 6 nM in test [2], 40 to 100 nM in test [3] and under 6 nM in test [4].

For `COc1cc2[nH]nc(-c3cnn([C@H]4CCN(C(=O)[C@@H]5CCN5CCF)C4)c3)c2nc1-c1cccc2c1CCC2` [Example 143, ((S)-3-(4-(5-(2,3-dihydro-1H-inden-4-yl)-6-methoxy-1H-pyrazolo[4,3-b]pyridin-3-yl)-1H-pyrazol-1-yl)pyrrolidin-1-yl)((S)-1-(2-fluoroethyl)azetidin-2-yl)methanone], the IC50 was 6 to 40 nM in test [1], under 6 nM in test [2], 6 to 40 nM in test [3] (setting [5]) and under 6 nM in test [4].
